Assay results as given in publication PMC12959773 (Protein & Cell, 2025).
Residue numbers refer to the chain shown, from its start.

Legend:
Assay in all cases: [2H]-cystine uptake, isotope tracking
Assay type in all cases: cell-based
Conditions in all cases: HEK293 cells transfected with SLC7A13 and SLC3A1; labelled compound
SLC7A13-SLC3A1 complex [1] = target: T1, SLC7A13-SLC3A1 complex (Homo sapiens, UniProt Q8TCU3, C223A)
T1 construct: heterodimeric light/heavy chain transporter, dimer of heterodimers; ectopically expressed in HEK293T / HEK293 cells (Expi293 for cryo-EM); with Amino acid transporter heavy chain SLC3A1
T1 sequence (Q8TCU3 1-470 C223A): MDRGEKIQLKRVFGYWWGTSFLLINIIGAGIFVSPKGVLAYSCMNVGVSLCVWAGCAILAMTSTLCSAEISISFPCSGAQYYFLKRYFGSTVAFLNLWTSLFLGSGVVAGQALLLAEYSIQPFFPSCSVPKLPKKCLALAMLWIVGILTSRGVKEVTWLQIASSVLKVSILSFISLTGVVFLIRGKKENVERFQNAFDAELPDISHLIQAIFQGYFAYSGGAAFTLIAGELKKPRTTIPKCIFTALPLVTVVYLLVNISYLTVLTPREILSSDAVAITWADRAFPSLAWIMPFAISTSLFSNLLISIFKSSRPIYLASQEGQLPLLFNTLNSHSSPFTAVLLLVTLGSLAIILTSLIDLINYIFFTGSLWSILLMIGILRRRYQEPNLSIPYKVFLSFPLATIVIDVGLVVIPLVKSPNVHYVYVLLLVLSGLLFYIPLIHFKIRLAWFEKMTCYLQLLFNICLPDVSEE
T1 sequence (Q07837 1-685 partner): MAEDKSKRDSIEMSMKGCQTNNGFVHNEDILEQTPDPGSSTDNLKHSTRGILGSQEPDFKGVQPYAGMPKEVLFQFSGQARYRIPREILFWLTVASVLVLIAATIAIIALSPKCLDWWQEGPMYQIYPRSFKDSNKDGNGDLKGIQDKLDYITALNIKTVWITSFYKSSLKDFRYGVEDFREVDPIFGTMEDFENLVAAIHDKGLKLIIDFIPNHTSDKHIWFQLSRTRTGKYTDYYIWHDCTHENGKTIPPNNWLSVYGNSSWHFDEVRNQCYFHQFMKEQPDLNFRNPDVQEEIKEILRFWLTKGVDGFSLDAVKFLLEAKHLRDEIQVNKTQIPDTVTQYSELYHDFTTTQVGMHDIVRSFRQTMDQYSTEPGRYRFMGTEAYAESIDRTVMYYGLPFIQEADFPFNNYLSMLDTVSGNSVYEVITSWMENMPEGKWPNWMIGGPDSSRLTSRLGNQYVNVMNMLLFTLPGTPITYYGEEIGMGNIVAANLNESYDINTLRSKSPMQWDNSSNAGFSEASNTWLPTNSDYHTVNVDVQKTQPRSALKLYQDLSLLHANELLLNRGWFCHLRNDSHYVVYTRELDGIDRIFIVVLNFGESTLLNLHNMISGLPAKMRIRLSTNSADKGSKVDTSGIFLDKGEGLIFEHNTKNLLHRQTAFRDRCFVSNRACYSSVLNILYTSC

SLC7A13-SLC3A1 complex [2] = target: T2, SLC7A13-SLC3A1 complex (Homo sapiens, UniProt Q8TCU3, K309A)
T2 construct: heterodimeric light/heavy chain transporter, dimer of heterodimers; ectopically expressed in HEK293T / HEK293 cells (Expi293 for cryo-EM); with Amino acid transporter heavy chain SLC3A1
T2 sequence (Q8TCU3 1-470 K309A): T1 sequence (Q8TCU3 1-470 C223A) with A223C, K309A
T2 sequence (Q07837 1-685 partner): T1 sequence (Q07837 1-685 partner)

SLC7A13-SLC3A1 complex [3] = target: T3, SLC7A13-SLC3A1 complex (Homo sapiens, UniProt Q8TCU3, F216A)
T3 construct: heterodimeric light/heavy chain transporter, dimer of heterodimers; ectopically expressed in HEK293T / HEK293 cells (Expi293 for cryo-EM); with Amino acid transporter heavy chain SLC3A1
T3 sequence (Q8TCU3 1-470 F216A): T1 sequence (Q8TCU3 1-470 C223A) with F216A, A223C
T3 sequence (Q07837 1-685 partner): T1 sequence (Q07837 1-685 partner)

N[C@@H](CSSC[C@H](N)C(=O)O)C(=O)O [cystine]
cystine uptake (SLC7A13-SLC3A1 complex [1]): mutation in any of the seven SLC7A13-specific residues to alanine significantly reduced SLC7A13’s transporter activities | cystine uptake (SLC7A13-SLC3A1 complex [2]): mutation in any of the seven SLC7A13-specific residues to alanine significantly reduced SLC7A13’s transporter activities | cystine uptake (SLC7A13-SLC3A1 complex [3]): mutation in any of the seven SLC7A13-specific residues to alanine significantly reduced SLC7A13’s transporter activities
